From PubChem BioAssay AID566 (University of Pittsburgh Molecular Library Screening Center, 2006)
The source made the active and inactive calls. The rule behind the calls is not given here.

Biological target: Dual specificity protein phosphatase 6 (Rattus norvegicus) (UniProt Q64346)
Test: MKP-3 phosphatase inhibitors, repeat potency, dose response, biochemical, rat DUSP6, reproducibility testing, probe assessment (AID 566)
Settings: recombinant MKP-3 phosphatase, fluorescence substrate

Sequence of Dual specificity protein phosphatase 6 (Rattus norvegicus) (Q64346 whole entry, looked up): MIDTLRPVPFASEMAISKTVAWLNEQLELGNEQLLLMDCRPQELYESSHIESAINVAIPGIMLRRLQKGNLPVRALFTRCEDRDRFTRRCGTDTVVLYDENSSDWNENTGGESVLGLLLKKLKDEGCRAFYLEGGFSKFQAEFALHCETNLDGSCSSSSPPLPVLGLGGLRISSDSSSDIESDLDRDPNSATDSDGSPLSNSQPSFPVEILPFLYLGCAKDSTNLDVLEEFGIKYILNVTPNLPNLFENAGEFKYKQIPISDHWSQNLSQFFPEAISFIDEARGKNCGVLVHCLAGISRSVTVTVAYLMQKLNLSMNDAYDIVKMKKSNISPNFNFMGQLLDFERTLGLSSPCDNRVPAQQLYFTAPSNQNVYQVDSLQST

## O=C1C(C2=C(O)c3ccccc3C2=O)=Nc2ccccc21
  IC50: > 50 µM (inactive)
